Values after ≈ are worked out from the molar mass of the structure shown. Where two headings read alike, the source gives them in different places. Starred links: 1 amine or outer side, 2 acyl side, 3 side chain; linkers in the order of their positions; H or OH if unused. Positions of bridges follow the written chain, without caps; N, C: chain ends. Residues, ends and D or L forms follow the SMILES beside them. Groups on a side chain read outwards from the residue. *: point of attachment. C20 diacid = O=C(O)CCCCCCCCCCCCCCCCCCC(=O)*; γGlu = O=C(O)[C@H](CCC(=O)[*:2])N[*:1]; AEEA = NCCOCCOCC(=O)O
Assay: Assay (IV) determination of solubility
Type: physicochemical
Method: ASSAY (IV)—Determination of Solubility
The polypeptide was dissolved in water at ˜500 nmol/ml and mixed 1:1 with a series of buffers (100 mM glycylglycine pH 3.0, 100 mM glycylglycine pH 4.0, 100 mM glycylglycine pH 5.0, 100 mM bistrispropane pH 6.0, 100 mM bistrispropane pH 6.5, 100 mM bistrispropane pH 7.0, 100 mM bistrispropane pH 7.5, 100 mM bistrispropane pH 8.0). After 18 hours at room temperature the samples were centrifuged and the polypeptide concentration determined by HPLC.

[1] = pH 3, pH 3.0, read-out: Solubility pH 3.0
[2] = pH 4, pH 4.0, 18 hours at room temperature, Table 2, read-out: Solubility pH 4.0
[3] = pH 4, pH 4.0, read-out: Solubility pH 4.0
[4] = pH 5, pH 5.0, read-out: Solubility pH 5.0
[5] = pH 6, pH 6.0, read-out: Solubility pH 6.0
[6] = pH 6.5, pH 6.5, read-out: Solubility pH 6.5
[7] = pH 7, pH 7.0, read-out: Solubility pH 7.0
[8] = pH 7.5, pH 7.5, read-out: Solubility pH 7.5
[9] = pH 8, pH 8.0, read-out: Solubility pH 8.0

Row | SMILES | solubility [1] [µM] | solubility [2] [µM] | solubility [3] [µM] | solubility [4] [µM] | solubility [5] [µM] | solubility [6] [µM] | solubility [7] [µM] | solubility [8] [µM] | solubility [9] [µM]
1 | CC[C@H](C)[C@H](NC(=O)[C@@H]1CCCN1C(=O)CNC(=O)[C@H](Cc1ccccc1)NC(=O)[C@H](CC(N)=O)NC(=O)[C@H](CCCCNC(=O)COCCOCCNC(=O)COCCOCCNC(=O)CC[C@H](NC(=O)CCCCCCCCCCCCCCCCCCC(=O)O)C(=O)O)NC(=O)[C@H](CO)NC(=O)[C@H](CO)NC(=O)[C@H](CCCNC(=N)N)NC(=O)[C@H](Cc1c[nH]cn1)NC(=O)[C@H](CC(C)C)NC(=O)[C@H](Cc1ccccc1)NC(=O)[C@H](CCC(=O)O)NC(=O)[C@H](C)NC(=O)[C@H](CC(C)C)NC(=O)[C@H](CCCNC(=N)N)NC(=O)[C@H](CCC(N)=O)NC(=O)[C@@H](NC(=O)[C@H](C)NC(=O)[C@@H]1CSSC[C@H](NC(=O)[C@@H](N)CCCNC(=N)N)C(=O)N[C@@H](CC(N)=O)C(=O)N[C@@H]([C@@H](C)O)C(=O)N[C@@H](C)C(=O)N[C@@H]([C@@H](C)O)C(=O)N1)[C@@H](C)O)C(=O)N[C@@H](CC(C)C)C(=O)N1CCC[C@H]1C(=O)N1CCC[C@H]1C(=O)N[C@H](C(=O)N[C@@H](CC(N)=O)C(=O)N[C@H](C(=O)NCC(=O)N[C@@H](CO)C(=O)N[C@@H](CC(N)=O)C(=O)N[C@H](C(=O)N[C@@H](Cc1ccc(O)cc1)C(N)=O)[C@@H](C)O)C(C)C)[C@@H](C)O [Example 14, N-epsilon21-[2-(2-{2-[2-(2-{2-[(S)-4-Carboxy-4-(19-carboxyheptadecanoylamino)butyrylamino]ethoxy}ethoxy)acetylamino]ethoxy}ethoxy)acetyl]-[Arg1,Glu14,His17,Arg18,Lys21]-pramlintide] (H-RCNTATCATQRLAEFLHRSSK([AEEA-AEEA-γGlu-C20 diacid])NFGPILPPTNVGSNTY-NH2; disulfide 2-7) | > 200 | > 200 | > 200 | > 200 | 192 (≈ 923 µg/mL) | 102 (≈ 490 µg/mL) | 13 (≈ 62.5 µg/mL) | 7 (≈ 33.7 µg/mL) | 47 (≈ 226 µg/mL)
2 | CC[C@H](C)[C@H](NC(=O)[C@@H]1CCCN1C(=O)CNC(=O)[C@H](Cc1ccccc1)NC(=O)[C@H](CC(N)=O)NC(=O)[C@H](CO)NC(=O)[C@H](CO)NC(=O)[C@H](CO)NC(=O)[C@H](Cc1c[nH]cn1)NC(=O)[C@H](Cc1c[nH]cn1)NC(=O)[C@H](CC(C)C)NC(=O)[C@H](Cc1ccccc1)NC(=O)[C@H](CCC(=O)O)NC(=O)[C@H](C)NC(=O)[C@H](CC(C)C)NC(=O)[C@H](CCCNC(=N)N)NC(=O)[C@H](CCC(N)=O)NC(=O)[C@@H](NC(=O)[C@H](C)NC(=O)[C@@H]1CSSC[C@H](NC(=O)[C@H](CCCCN)NC(=O)COCCOCCNC(=O)COCCOCCNC(=O)CC[C@H](NC(=O)CCCCCCCCCCCCCCCCCCC(=O)O)C(=O)O)C(=O)N[C@@H](CC(N)=O)C(=O)N[C@@H]([C@@H](C)O)C(=O)N[C@@H](C)C(=O)N[C@@H]([C@@H](C)O)C(=O)N1)[C@@H](C)O)C(=O)N[C@@H](CC(C)C)C(=O)N1CCC[C@H]1C(=O)N1CCC[C@H]1C(=O)N[C@H](C(=O)N[C@@H](CC(N)=O)C(=O)N[C@H](C(=O)NCC(=O)N[C@@H](CO)C(=O)N[C@@H](Cc1c[nH]cn1)C(=O)N[C@H](C(=O)N[C@@H](Cc1ccc(O)cc1)C(N)=O)[C@@H](C)O)C(C)C)[C@@H](C)O [Example 118, N-alpha-[2-(2-{2-[2-(2-{2-[(S)-4-Carboxy-4-(19-carboxyheptadecanoylamino)butyrylamino]ethoxy}ethoxy)acetylamino]ethoxy}ethoxy)acetyl]-[Glu14,His17,Ser21,His35]-pramlintide] ({C20 diacid-γGlu-AEEA-AEEA}-KCNTATCATQRLAEFLHHSSSNFGPILPPTNVGSHTY-NH2; disulfide 2-7) | > 200 | > 200 | > 200 | > 200 | > 200 | 105 (≈ 498 µg/mL) | 37 (≈ 175 µg/mL) | 57 (≈ 270 µg/mL) | 117 (≈ 555 µg/mL)
3 | CC[C@H](C)[C@H](NC(=O)[C@@H]1CCCN1C(=O)CNC(=O)[C@H](Cc1ccccc1)NC(=O)[C@H](CC(N)=O)NC(=O)[C@H](CO)NC(=O)[C@H](CO)NC(=O)[C@H](CO)NC(=O)[C@H](Cc1c[nH]cn1)NC(=O)[C@H](Cc1c[nH]cn1)NC(=O)[C@H](CC(C)C)NC(=O)[C@H](Cc1ccccc1)NC(=O)[C@H](CCC(=O)O)NC(=O)[C@H](C)NC(=O)[C@H](CC(C)C)NC(=O)[C@H](CCCNC(=N)N)NC(=O)[C@H](CCC(N)=O)NC(=O)[C@@H](NC(=O)[C@H](C)NC(=O)[C@@H]1CSSC[C@H](NC(=O)[C@H](Cc2c[nH]cn2)NC(=O)COCCOCCNC(=O)COCCOCCNC(=O)CC[C@H](NC(=O)CCCCCCCCCCCCCCCCCCC(=O)O)C(=O)O)C(=O)N[C@@H](CC(N)=O)C(=O)N[C@@H]([C@@H](C)O)C(=O)N[C@@H](C)C(=O)N[C@@H]([C@@H](C)O)C(=O)N1)[C@@H](C)O)C(=O)N[C@@H](CC(C)C)C(=O)N1CCC[C@H]1C(=O)N1CCC[C@H]1C(=O)N[C@H](C(=O)N[C@@H](CC(N)=O)C(=O)N[C@H](C(=O)NCC(=O)N[C@@H](CO)C(=O)N[C@@H](Cc1c[nH]cn1)C(=O)N[C@H](C(=O)N[C@@H](Cc1ccc(O)cc1)C(N)=O)[C@@H](C)O)C(C)C)[C@@H](C)O [Example 119, N-alpha-[2-(2-{2-[2-(2-{2-[(S)-4-Carboxy-4-(19-carboxyheptadecanoylamino)butyrylamino]ethoxy}ethoxy)acetylamino]ethoxy}ethoxy)acetyl]-[His1,Glu14,His17,Ser21,His35]-pramlintide] ({C20 diacid-γGlu-AEEA-AEEA}-HCNTATCATQRLAEFLHHSSSNFGPILPPTNVGSHTY-NH2; disulfide 2-7) | > 200 | > 200 | > 200 | > 200 | 32 (≈ 152 µg/mL) | 3 (≈ 14.3 µg/mL) | 13 (≈ 61.8 µg/mL) | 114 (≈ 542 µg/mL) | > 200

— patent US8722849B2, “Polypeptides” (Novo Nordisk A/S, priority 2011, dated 2014)
